Reference: ChEMBL document CHEMBL1687737, “Potent activity of a nucleoside reverse transcriptase inhibitor, 4'-ethynyl-2-fluoro-2'-deoxyadenosine, against human immunodeficiency virus type 1 infection in a model using human peripheral blood mononuclear cell-transplanted NOD/SCID Janus kinase 3 knockout mice” (Antimicrob Agents Chemother, 2009)
Active and inactive are the calls of the source. The calls are words filed in the database; no cut-off is given here.

Tests used:
[1] = test system: Human immunodeficiency virus 1; assay: Antiviral activity against HIV1 JR-FL infected in human PBMC transplanted NOD/SCID/Janus kinase 3 knockout mouse assessed as increase of CD4/CD8 ratio in peritoneal cavity at 0.5 mg/kg, ip bid for 15 days by flow cytometry; assay type: functional, organism-based; set-up: dose 0.5 mg/kg
[2] = test system: Human immunodeficiency virus 1; assay: Antiviral activity against HIV1 JR-FL infected in human PBMC transplanted NOD/SCID/Janus kinase 3 knockout mouse assessed as decrease of viremia in plasma at 0.5 mg/kg, ip bid for 15 days by ELISA; assay type: functional, organism-based; set-up: dose 0.5 mg/kg
Mus musculus [3] = assay: Toxicity in BALB/c mouse assessed as change in body weight at 5 mg/kg, ip bid for 14 days; assay type: organism-based; set-up: dose 5 mg/kg, route intraperitoneal; conditions: in vivo, 336 h
[4] = test system: Human immunodeficiency virus 1; assay: Antiviral activity against HIV1 JR-FL infected in human PBMC transplanted NOD/SCID/Janus kinase 3 knockout mouse assessed as decrease of p24 expressing human CD4+ cells in PBMC at 0.5 mg/kg, ip bid for 15 days by flow cytometry; assay type: functional, organism-based; set-up: dose 0.5 mg/kg
Mus musculus [5] = assay: Toxicity in BALB/c mouse assessed as acute whole-body effect at 50 mg/kg, ip bid for 14 days; assay type: organism-based; set-up: dose 50 mg/kg, route intraperitoneal; conditions: in vivo, 336 h
Mus musculus [6] = assay: Toxicity in HIV1 JR-FL infected human PBMC transplanted NOD/SCID/Janus kinase 3 knockout mouse assessed as adverse effect at 0.5 mg/kg, ip bid for 15 days; assay type: organism-based; set-up: dose 0.5 mg/kg, route intraperitoneal; conditions: in vivo, 360 h
Mus musculus [7] = assay: Toxicity in BALB/c mouse assessed as acute whole-body effect at 5 mg/kg, ip bid for 14 days; assay type: organism-based; set-up: dose 5 mg/kg, route intraperitoneal; conditions: in vivo, 336 h
Mus musculus [8] = assay: Toxicity in BALB/c mouse assessed as subacute whole-body effect at 50 mg/kg, ip bid for 14 days; assay type: organism-based; set-up: dose 50 mg/kg, route intraperitoneal; conditions: in vivo, 336 h
[9] = Drug level in BALB/c mouse blood at 20 mg/kg, ip; assay type: ADME, organism-based; set-up: dose 20 mg/kg, route intraperitoneal; conditions: read-out: Drug uptake
Mus musculus [10] = assay: Toxicity in BALB/c mouse assessed as change in body weight at 50 mg/kg, ip bid for 14 days; assay type: organism-based; set-up: dose 50 mg/kg, route intraperitoneal; conditions: in vivo, 336 h
Mus musculus [11] = assay: Toxicity in BALB/c mouse assessed as subacute whole-body effect at 5 mg/kg, ip bid for 14 days; assay type: organism-based; set-up: dose 5 mg/kg, route intraperitoneal; conditions: in vivo, 336 h
[12] = Tmax in BALB/c mouse at 20 mg/kg, ip; assay type: ADME, organism-based; set-up: dose 20 mg/kg, route intraperitoneal; conditions: in vivo
Mus musculus [13] = assay: Toxicity in BALB/c mouse assessed as ruffled fur at 50 mg/kg, ip bid for 14 days; assay type: organism-based; set-up: dose 50 mg/kg, route intraperitoneal; conditions: in vivo, 336 h
[14] = test system: Human immunodeficiency virus 1; assay: Antiviral activity against HIV1 JR-FL infected in human PBMC transplanted NOD/SCID/Janus kinase 3 knockout mouse assessed as increase of CD4/CD8 ratio in PBMC at 0.5 mg/kg, ip bid for 15 days by flow cytometry; assay type: functional; conditions: route intraperitoneal
[15] = test system: Human immunodeficiency virus 1; assay: Antiviral activity against HIV1 JR-FL infected in human PBMC transplanted NOD/SCID/Janus kinase 3 knockout mouse assessed as decrease of p24 expressing human CD3+ cells in spleen cells at 0.5 mg/kg, ip bid for 15 days by flow cytometry; assay type: functional; set-up: scale not given: the % may be the effect or the level left; conditions: route intraperitoneal
[16] = test system: Human immunodeficiency virus 1; assay: Antiviral activity against HIV1 JR-FL infected in human PBMC transplanted NOD/SCID/Janus kinase 3 knockout mouse assessed as increase of CD4/CD8 ratio in spleen at 0.5 mg/kg, ip bid for 15 days by flow cytometry; assay type: functional, organism-based; set-up: dose 0.5 mg/kg
[17] = test system: Human immunodeficiency virus 1; assay: Antiviral activity against HIV1 JR-FL infected in human PBMC transplanted NOD/SCID/Janus kinase 3 knockout mouse assessed as decrease of p24 expressing human CD4+ cells in peritoneal cavity cells at 0.5 mg/kg, ip bid for 15 days by flow cytometry; assay type: functional, organism-based; set-up: dose 0.5 mg/kg
[18] = test system: Human immunodeficiency virus 1; assay: Antiviral activity against HIV1 JR-FL infected in human PBMC transplanted NOD/SCID/Janus kinase 3 knockout mouse assessed as decrease of viral p24 antigen level in plasma at 0.5 mg/kg, ip bid for 15 days by ELISA; assay type: functional; conditions: route intraperitoneal

With C#C[C@]1(CO)O[C@@H](n2cnc3c(N)nc(F)nc32)C[C@@H]1O [ISLATRAVIR] the Activity [1] was “Active”, the Activity [2] was “Active” and the Activity (Mus musculus [3]) was “Non-toxic”. For the same compound, the Activity [4] was “Active”, the Activity (Mus musculus [5]) was “Non-toxic” and the Activity (Mus musculus [6]) was “Non-toxic”. The Activity (Mus musculus [7]) was “Non-toxic”, the Activity (Mus musculus [8]) was “Non-toxic” and the AUC [9] was 4990 ng·h/mL. The Activity (Mus musculus [10]) was “Non-toxic”, the Activity (Mus musculus [11]) was “Non-toxic” and the Tmax [12] was 10 min. For the same compound, the Activity (Mus musculus [13]) was “Non-toxic”, the Ratio [14] was 0.65 and the Activity [15] was 0.11%. The Activity [16] was “Active”, the Activity [17] was “Active” and the Activity [18] was 2.1 ×10² pg/ml.
